Results: patent publication US20180343857A1, “BIOSOLUBILIZER” (SOLIANCE, priority 2012, published 2018)
Where a name gives a salt, the structure may show the parent alone.

Tested on: Avena Fatua
Experiment: Biological effectiveness of glyphosate with extemporaneous adjuvant (biomass reduction curves)
Type: in vivo
Conditions: Avena Fatua in pots; glyphosate 50 to 650 g equivalent acid per hectare; dry biomass 3 weeks after treatment; R = 1 for herbicide without adjuvant
Source text: The preparation of example 2.4 containing terpenic alcohols solubilised by sophorolipids is used as an extemporaneous adjuvant of glyphosate. Glyphosate is a non-selective herbicide, the definition and use of which are described in particular in “The biochemistry and uses of pesticides, 2nd edition” by Kenneth A. Hassall published by VCH (1990). An extemporaneous adjuvant is a preparation added to the phytosanitary preparation at the moment of application and is used to reinforce the action of the latter.
The glyphosate used is a solution of glyphosate in the form of isopropylamine salt titrated to 620 g/l equivalent glyphosate acid.
The effectiveness of the preparation according to the invention is assessed by forming curves of biological effectiveness, that is by determining the ability of the preparations to reduce the biomass of a target plant as a function of the concentration of herbicide. […]
where Y is the dry biomass of the plant (plant cut at the base and dried 24 h at 110° C. in a ventilated heat chamber), X is the concentration of herbicide expressed in grams of glyphosate acid per hectare. C, D, a and b being factors determined by analysing the curve according to the least squares method. […] Its value is determined by applying the above equation with the parameters D, C, a and b of the curve of the herbicide without adjuvant (R=1) according to the least squares method. […]

Compound: O=C(O)CNCP(=O)(O)O [Glyphosate (iso-propylamine salt), Glyphosate]
- R (factor of effectiveness): 1
